Key:
Ba/F3-AXL cells = test: Assay for inhibiting the proliferation of Ba/F3-AXL cells (CCK-8); format: cell-based; conditions: 72 hours of incubation, medium with 100 ng/mL hGas6, CCK-8
Experimental: The values were then imported into Graphpad Prism 5 software for curve fitting, and IC50 was calculated.

MHCC97H cells = test: Assay for inhibiting the proliferation of MHCC97H cells (CCK-8); format: cell-based; conditions: Homo sapiens
Experimental: (§1) In particular, the method of the assay of small molecular compounds for inhibiting cell proliferation is as follows: • 1. Cells cultured to a logarithmic growth phase (adherent cells need to be digested with trypsin and neutralized) were taken, pipetted evenly, transferred to a 15 mL centrifuge tube, and centrifuged at 1000 rpm at room temperature for 4 minutes; • 2. The supernatant was discarded; 5 mL of complete medium was added and pipetted evenly; 10 μL of cell suspension was taken out, mixed well with 10 μL of 0.4% trypan blue, and counted under a cell counter; the proportion of living cells was ensured to be above 90%; • 3. 80 μL of cell suspension per well was seeded into a 96-well plate according to the conditions shown in the attached table, and cultured overnight; in the outer 36 wells of the 96-well plate, no cells were added but only sterile water was added; only the inner 60 wells were used for cell assay and control; • 4. 5×compound dilution: the compounds were serially diluted 3-fold to obtain a total of 9 concentrations; 80-fold overall dilution was completed with complete medium, the resulting concentration was 5 times the final drug concentration, and DMSO concentration was 1.25%; • 5. 20 μL of the corresponding compounds with different concentration gradients were added to each well of assay wells of the 96-well plate; 20 μL of complete medium was added to positive and negative control wells and shaken well; and the final concentration of DMSO in each well was 0.25%; • 6. After 72 hours of incubation, 10 μL of CCK-8 reagent was added to each well and further incubated at 37° C. for 1-2 hours; and the OD value was read at 450 nm; • 7. Cell survival rate (%)=[(As−Ab)/(Ac−Ab)]*100% • As: Assay well (medium containing cells, CCK-8, compound), • Ac: Control well (medium containing cells, CCK-8), • Ab: Blank well (CCK-8, medium without cell and compound), • 8. The values were imported into Graphpad Prism 5 software for IC50 calculation.

Ba/F3 LMNA-NTRK1 cells = test: Assay for inhibiting the proliferation of Ba/F3 LMNA-NTRK1 cells (CCK-8); format: cell-based; conditions: Mus musculus, BaF3
Experimental: as §1, with “5×compound dilution: the compounds were serially diluted 3-fold to obtain a total of 9 concentrations; 80-fold overall dilution was completed with complete medium, the resulting concentration was 5 times the final drug concentration, and DMSO concentration was 1.25%; • 5.” left out

EBC1 cells = test: Assay for inhibiting the proliferation of EBC1 cells (CCK-8); format: cell-based; conditions: Homo sapiens, EBC-1
Experimental: as §1

TRKA kinase = TRKA kinase (Homo sapiens (Human), UniProt P04629); test: Assay of small molecular compounds for inhibiting the activity of TRKA kinase (LANCE TR-FRET); format: biochemical
Summary of the method: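 LANCE TR-FRET with ULight-TK peptide; compounds pre-incubated 5 min with TRKA (2× solution 2 nM), then substrate/ATP added (4× mix: 400 nM peptide, 40 μM ATP). Reaction 60 min at room temperature in dark, 1% DMSO final; stopped, detection developed 60 min, signal read.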

MER kinase = MER kinase (Homo sapiens (Human), UniProt Q12866); test: Assay of small molecular compounds for inhibiting the activity of MER kinase (LANCE TR-FRET); format: biochemical
Summary of the method: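 MER kinase preincubated 5 min at RT with compound (11 points, 0.042-2500 nM final), then ULight-poly GT and ATP added (4× stocks 200 nM and 20 μM) for 60 min at RT, 1% DMSO. Phosphorylation detected by LANCE TR-FRET; IC50 from % inhibition versus controls.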

VEGFR-2 kinase = VEGFR-2 kinase (Homo sapiens (Human), UniProt P35968); test: Assay of small molecular compounds for inhibiting the activity of VEGFR-2 kinase (LANCE TR-FRET); format: biochemical; conditions: read-out: VEGFR2 IC50
Experimental: The assay is based on the LANCE TR-FRET technology of Perkin Elmer Inc., and the assay method is as follows: • 1. Dilution of compounds: a total of 11 concentrations were obtained using a 3-fold gradient dilution from the highest concentration of 2500 nM (the maximum final concentration of the drug used in this assay was 2500 nM, and the minimum final concentration was 0.042 nM). • 2. 2.5 μL of the gradient-diluted compounds were taken with a transfer pipette to a 384-well plate. • 3. Addition of enzyme: 5 μL of 2×VEGFR2 kinase solution (with a concentration of 0.5 nM) was taken with a transfer pipette to the corresponding reaction well of the 384-well plate, mixed well and pre-reacted at room temperature for 30 minutes. • 4. 2.5 μL 4× Ultra ULight™-JAK-1 (Tyr1023) Peptide (with a concentration of 200 nM)/ATP (with a concentration of 40 μM) mixture was taken with a transfer pipette to the corresponding reaction well of the 384-well plate. • 5. Negative control: 2.5 μL/well 4× substrate/ATP mixture and 7.5 μL 1× Kinase Assay Buffer were added to the wells of the 384-well plate. • 6. Positive control: 2.5 μL/well 4× substrate/ATP mixture, 2.5 μL/well 1× Kinase Assay Buffer containing 16% DMSO, and 5 μL/well 2×VEGFR-2 kinase solution were added to the 384-well plate. The final concentration of DMSO in the reaction system was 4%. • 7. The mixture was mixed well and then centrifuged and reacted at room temperature in dark for 60 min. • 8. Termination of the enzymatic reaction: 5 μL of 4× stop solution was taken with a transfer pipette to the wells of the 384-well plate, mixed and then centrifuged, and reacted at room temperature for 5 min. • 9. Development of the reaction: 5 μL of 4× detection solution was taken with a transfer pipette to the wells of the 384-well plate for color development, and the mixture was mixed and then centrifuged and reacted at room temperature for 60 min. • 10. The 384-well plate was placed into the Envision plate reader and the signal was detected using the appropriate program. • 11. Analysis and processing of the raw data: The drug concentrations and the corresponding inhibition rates were input into GraphPad Prism5 for calculation, and the inhibition rate of the compounds were calculated as follows: inhibition rate (%)=(reading of positive well−reading of experimental well)/(reading of positive control well−reading of negative control well)×100%. Processing with GraphPad Prism5 software yielded the corresponding IC50 values (the concentration of the compound at which 50% of the highest inhibition of the enzyme is achieved).

[1] = tested on: Ba/F3 LMNA-NTRK1-G595R cells; test: Assay for inhibiting the proliferation of Ba/F3 LMNA-NTRK1-G595R cells (CCK-8); format: cell-based; conditions: Mus musculus, BaF3
Experimental: as §1

c-MET kinase = c-MET kinase (Homo sapiens (Human), UniProt P08581); test: Assay of small molecular compounds for inhibiting the activity of c-MET kinase (LANCE TR-FRET); format: biochemical; conditions: read-out: CMET IC50
Summary of the method: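 LANCE TR-FRET assay with c-MET at 1 nM final after a 5 min room-temperature preincubation with compound (11-point, 3-fold series, 2500–0.042 nM final, 4% DMSO). ULight-JAK-1 (Tyr1023) peptide (100 nM final) and ATP (10 μM final) reacted 60 min in the dark. Inhibition was taken relative to controls, then IC50 fitted.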

TRKA kinase, sequence (P04629 33-796): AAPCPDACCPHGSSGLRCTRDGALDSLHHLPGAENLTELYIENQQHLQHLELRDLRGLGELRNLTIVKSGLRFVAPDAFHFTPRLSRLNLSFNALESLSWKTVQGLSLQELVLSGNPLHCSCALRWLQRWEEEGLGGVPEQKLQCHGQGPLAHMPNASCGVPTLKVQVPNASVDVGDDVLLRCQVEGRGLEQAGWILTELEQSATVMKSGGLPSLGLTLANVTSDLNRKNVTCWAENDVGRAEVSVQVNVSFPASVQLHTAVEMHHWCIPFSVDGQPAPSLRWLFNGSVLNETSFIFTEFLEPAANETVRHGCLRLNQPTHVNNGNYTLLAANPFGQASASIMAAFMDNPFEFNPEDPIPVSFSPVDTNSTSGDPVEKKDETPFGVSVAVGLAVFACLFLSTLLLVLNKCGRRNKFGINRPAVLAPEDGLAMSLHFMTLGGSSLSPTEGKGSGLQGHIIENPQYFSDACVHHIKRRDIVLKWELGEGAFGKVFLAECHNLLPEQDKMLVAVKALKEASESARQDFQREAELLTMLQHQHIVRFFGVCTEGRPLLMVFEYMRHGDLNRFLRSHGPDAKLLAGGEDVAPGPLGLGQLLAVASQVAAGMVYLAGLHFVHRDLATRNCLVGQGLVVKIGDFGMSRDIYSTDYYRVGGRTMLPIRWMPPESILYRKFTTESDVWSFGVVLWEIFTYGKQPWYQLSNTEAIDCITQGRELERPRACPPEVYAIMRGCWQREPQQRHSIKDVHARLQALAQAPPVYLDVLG
c-MET kinase, sequence (P08581 25-1390): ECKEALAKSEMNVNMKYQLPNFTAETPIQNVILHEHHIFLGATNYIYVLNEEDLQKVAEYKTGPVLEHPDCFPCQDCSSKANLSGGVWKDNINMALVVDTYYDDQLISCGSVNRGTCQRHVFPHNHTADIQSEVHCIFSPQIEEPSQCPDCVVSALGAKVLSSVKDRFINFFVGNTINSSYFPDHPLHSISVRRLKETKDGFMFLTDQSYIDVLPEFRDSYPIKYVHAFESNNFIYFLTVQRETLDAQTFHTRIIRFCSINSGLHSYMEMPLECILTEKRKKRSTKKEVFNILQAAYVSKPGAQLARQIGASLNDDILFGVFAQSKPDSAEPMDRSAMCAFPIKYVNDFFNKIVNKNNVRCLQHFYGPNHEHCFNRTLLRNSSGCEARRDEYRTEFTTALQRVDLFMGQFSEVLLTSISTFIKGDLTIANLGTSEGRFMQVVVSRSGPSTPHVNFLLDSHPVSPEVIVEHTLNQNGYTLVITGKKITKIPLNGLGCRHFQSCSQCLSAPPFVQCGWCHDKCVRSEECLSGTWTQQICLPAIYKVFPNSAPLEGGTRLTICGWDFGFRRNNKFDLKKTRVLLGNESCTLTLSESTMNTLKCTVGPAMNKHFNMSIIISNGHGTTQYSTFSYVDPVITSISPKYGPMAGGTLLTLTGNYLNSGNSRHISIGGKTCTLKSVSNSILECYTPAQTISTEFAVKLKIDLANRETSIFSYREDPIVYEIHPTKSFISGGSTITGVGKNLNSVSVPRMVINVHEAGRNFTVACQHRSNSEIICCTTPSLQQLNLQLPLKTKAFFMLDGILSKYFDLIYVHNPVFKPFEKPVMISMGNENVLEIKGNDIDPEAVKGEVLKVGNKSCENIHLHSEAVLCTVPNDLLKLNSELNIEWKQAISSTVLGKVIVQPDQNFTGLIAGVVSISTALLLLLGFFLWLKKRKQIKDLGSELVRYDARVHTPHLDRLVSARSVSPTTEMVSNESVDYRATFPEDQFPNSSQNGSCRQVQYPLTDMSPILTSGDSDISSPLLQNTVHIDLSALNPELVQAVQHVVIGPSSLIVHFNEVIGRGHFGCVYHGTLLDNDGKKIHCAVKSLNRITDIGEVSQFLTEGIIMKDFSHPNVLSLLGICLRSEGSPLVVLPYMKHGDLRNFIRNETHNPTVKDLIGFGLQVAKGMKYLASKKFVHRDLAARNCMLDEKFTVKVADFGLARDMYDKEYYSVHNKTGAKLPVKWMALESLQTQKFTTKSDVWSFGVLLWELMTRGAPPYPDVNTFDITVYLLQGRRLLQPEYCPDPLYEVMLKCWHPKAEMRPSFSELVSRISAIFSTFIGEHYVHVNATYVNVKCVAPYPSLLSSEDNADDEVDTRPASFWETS
VEGFR-2 kinase, sequence (P35968 20-1356): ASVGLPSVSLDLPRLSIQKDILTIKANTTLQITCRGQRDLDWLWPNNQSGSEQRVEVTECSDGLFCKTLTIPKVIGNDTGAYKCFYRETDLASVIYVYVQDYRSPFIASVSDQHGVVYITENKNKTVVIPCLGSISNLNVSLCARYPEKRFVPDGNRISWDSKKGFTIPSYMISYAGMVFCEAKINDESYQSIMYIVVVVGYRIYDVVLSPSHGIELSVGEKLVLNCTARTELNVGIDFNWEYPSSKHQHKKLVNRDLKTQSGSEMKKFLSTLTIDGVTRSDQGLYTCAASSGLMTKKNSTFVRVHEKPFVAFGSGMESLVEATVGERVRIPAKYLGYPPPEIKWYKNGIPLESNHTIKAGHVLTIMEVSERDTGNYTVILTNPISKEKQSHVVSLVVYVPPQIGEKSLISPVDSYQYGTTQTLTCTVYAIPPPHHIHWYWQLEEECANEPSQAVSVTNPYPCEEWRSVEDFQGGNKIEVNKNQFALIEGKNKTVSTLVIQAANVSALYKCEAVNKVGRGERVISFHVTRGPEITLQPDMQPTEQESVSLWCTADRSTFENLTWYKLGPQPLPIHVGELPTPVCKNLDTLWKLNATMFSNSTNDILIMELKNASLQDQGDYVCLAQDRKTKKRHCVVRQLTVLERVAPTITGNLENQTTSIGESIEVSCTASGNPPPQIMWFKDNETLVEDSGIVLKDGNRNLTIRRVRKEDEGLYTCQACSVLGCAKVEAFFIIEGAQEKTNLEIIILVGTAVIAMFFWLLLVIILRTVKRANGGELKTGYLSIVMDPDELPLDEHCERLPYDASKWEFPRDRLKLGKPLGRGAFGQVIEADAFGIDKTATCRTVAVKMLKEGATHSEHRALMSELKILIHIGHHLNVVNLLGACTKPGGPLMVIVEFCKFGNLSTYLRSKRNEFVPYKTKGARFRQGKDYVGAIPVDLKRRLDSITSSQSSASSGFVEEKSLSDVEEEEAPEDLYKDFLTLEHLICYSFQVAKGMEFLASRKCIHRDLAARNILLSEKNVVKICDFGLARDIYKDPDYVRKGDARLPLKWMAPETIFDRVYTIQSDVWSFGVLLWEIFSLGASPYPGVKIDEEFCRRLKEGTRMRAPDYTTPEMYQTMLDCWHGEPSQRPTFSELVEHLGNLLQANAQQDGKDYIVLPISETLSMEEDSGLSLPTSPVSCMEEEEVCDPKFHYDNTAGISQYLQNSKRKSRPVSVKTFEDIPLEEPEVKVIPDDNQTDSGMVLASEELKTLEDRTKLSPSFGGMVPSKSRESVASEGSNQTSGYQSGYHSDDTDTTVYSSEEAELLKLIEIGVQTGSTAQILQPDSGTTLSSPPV
MER kinase, sequence (Q12866 21-999): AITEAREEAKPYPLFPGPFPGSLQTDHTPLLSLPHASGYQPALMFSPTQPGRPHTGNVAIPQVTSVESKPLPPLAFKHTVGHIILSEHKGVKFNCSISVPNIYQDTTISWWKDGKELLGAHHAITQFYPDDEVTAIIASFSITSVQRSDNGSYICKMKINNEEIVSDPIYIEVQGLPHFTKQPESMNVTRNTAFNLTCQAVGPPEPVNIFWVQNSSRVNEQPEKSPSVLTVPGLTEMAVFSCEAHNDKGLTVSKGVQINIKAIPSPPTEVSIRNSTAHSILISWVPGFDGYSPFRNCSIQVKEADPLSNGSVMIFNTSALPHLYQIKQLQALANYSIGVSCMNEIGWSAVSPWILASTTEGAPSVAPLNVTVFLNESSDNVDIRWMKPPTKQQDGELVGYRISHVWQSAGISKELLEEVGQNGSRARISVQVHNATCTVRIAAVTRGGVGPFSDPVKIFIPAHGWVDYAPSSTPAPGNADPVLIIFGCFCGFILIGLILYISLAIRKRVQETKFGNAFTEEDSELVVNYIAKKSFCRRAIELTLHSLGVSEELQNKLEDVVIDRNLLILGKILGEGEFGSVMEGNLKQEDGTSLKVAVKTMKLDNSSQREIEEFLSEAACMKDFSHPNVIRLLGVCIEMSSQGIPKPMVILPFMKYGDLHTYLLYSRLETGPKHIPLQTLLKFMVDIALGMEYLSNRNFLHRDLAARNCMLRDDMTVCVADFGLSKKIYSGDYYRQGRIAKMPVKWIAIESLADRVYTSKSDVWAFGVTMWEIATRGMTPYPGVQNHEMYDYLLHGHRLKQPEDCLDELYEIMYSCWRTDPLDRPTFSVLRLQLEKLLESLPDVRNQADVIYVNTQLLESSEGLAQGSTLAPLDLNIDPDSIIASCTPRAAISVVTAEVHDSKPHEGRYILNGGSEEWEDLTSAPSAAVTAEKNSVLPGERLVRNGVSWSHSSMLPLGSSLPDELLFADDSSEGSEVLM

Compound	IC50 (Ba/F3-AXL cells)	IC50 (MHCC97H cells)	IC50 (Ba/F3 LMNA-NTRK1 cells)	IC50 (EBC1 cells)	IC50 (TRKA kinase)	IC50 (MER kinase)	IC50 (VEGFR-2 kinase)	IC50 [1]	IC50 (c-MET kinase)
O=C(Nc1ccc(Oc2ccnc3cc(OCCCN4CCOCC4)c4c(c23)OCCO4)c(F)c1)c1cccn(-c2ccc(F)cc2)c1=O [Example 20, N-(3-fluoro-4-((5-(3-morpholinopropoxy)-2,3-dihydro-[1,4]dioxino[2,3-f]quinolin-10-yl)oxy)phenyl)-1-(4-fluorophenyl)-2-oxo-1,2-dihydropyridine-3-carboxamide]	< 50 nM	≤ 50 nM	< 50 nM	≤ 50 nM					
CCOc1ccn(-c2ccc(F)cc2)c(=O)c1C(=O)Nc1ccc(Oc2ccnc3cc(OCCCCCCN(C)C)c4c(c23)OCCO4)c(F)c1 [Example 60, N-(4-((5-((6-dimethylamino)hexyloxy)-2,3-dihydro-[1,4]dioxino[2,3-f]quinolin-10-yl)oxy)-3-fluorophenyl)-4-ethoxy-1-(4-fluorophenyl)-2-oxo-1,2-dihydropyridine-3-carboxamide]	< 50 nM	50 to 200 nM	< 50 nM	≤ 50 nM					
CCOc1ccn(-c2ccc(F)cc2)c(=O)c1C(=O)Nc1ccc(Oc2ccnc3cc(OCCCN(C)C)c4c(c23)OCCO4)c(F)c1 [Example 61, N-(4-((5-((3-dimethylamino)propoxy)-2,3-dihydro-[1,4]dioxino[2,3-f]quinolin-10-yl)oxy)-3-fluorophenyl)-4-ethoxy-1-(4-fluorophenyl)-2-oxo-1,2-dihydropyridine-3-carboxamide]	< 50 nM	≤ 50 nM	< 50 nM	≤ 50 nM					
COc1cc2nccc(Oc3ccc(NC(=O)c4c(OC)ccn(-c5ccc(F)cc5)c4=O)c(Cl)c3)c2c2c1OCCO2 [Example 124, N-(2-chloro-4-((5-methoxy-2,3-dihydro-[1,4]dioxino[2,3-f]quinolin-10-yl)oxy)phenyl)-1-(4-fluorophenyl)-4-methoxy-2-oxo-1,2-dihydropyridine-3-carboxamide]	< 50 nM		< 50 nM		< 50 nM	≤ 50 nM	500 to 5000 nM		
Cn1cc(C(=O)Nc2ccc(Oc3ccnc4ccc5c(c34)OCCO5)cc2)c(=O)n(-c2ccc(F)cc2)c1=O [Example 158, N-(4-((2,3-dihydro-[1,4]dioxino[2,3-f]quinolin-10-yl)oxy)phenyl)-3-(4-fluorophenyl)-1-methyl-2,4-dioxo-1,2,3,4-tetrahydropyrimidine-5-carboxamide]			200 to 1000 nM		50 to 500 nM			> 1000 nM	
CCc1cc(Oc2ccnc3cc(OCCOC)c4c(c23)OCCO4)c(F)cc1NC(=O)c1cn(C)c(=O)n(-c2ccc(F)cc2)c1=O [Example 181, N-(5-fluoro-4-((5-(2-methoxyethoxy)-2,3-dihydro-[1,4]dioxino[2,3-f]quinolin-10-yl)oxy)-2-ethylphenyl)-3-(4-fluorophenyl)-1-methyl-2,4-dioxo-1,2,3,4-tetrahydropyrimidine-5-carboxamide]		50 to 200 nM			< 50 nM				≤ 50 nM
CCc1cc(Oc2ccnc3cc(OCCOC)c4c(c23)OCCO4)c(F)cc1NC(=O)c1cn(CC)c(=O)n(-c2ccc(F)cc2)c1=O [Example 182, N-(5-fluoro-4-((5-(2-methoxyethoxy)-2,3-dihydro-[1,4]dioxino[2,3-f]quinolin-10-yl)oxy)-2-ethylphenyl)-3-(4-fluorophenyl)-1-ethyl-2,4-dioxo-1,2,3,4-tetrahydropyrimidine-5-carboxamide]		≤ 50 nM			50 to 500 nM				≤ 50 nM
COCCOc1cc2nccc(Oc3cc(C(C)C)c(NC(=O)c4cn(C)c(=O)n(-c5ccc(F)cc5)c4=O)cc3F)c2c2c1OCCO2 [Example 183, N-(5-fluoro-4-((5-(2-methoxyethoxy)-2,3-dihydro-[1,4]dioxino[2,3-f]quinolin-10-yl)oxy)-2-isopropylphenyl)-3-(4-fluorophenyl)-1-methyl-2,4-dioxo-1,2,3,4-tetrahydropyrimidine-5-carb oxamide]		> 1000 nM			50 to 500 nM				50 to 500 nM
CCn1cc(C(=O)Nc2cc(F)c(Oc3ccnc4cc(OCCOC)c5c(c34)OCCO5)cc2C(C)C)c(=O)n(-c2ccc(F)cc2)c1=O [Example 184, N-(5-fluoro-4-((5-(2-methoxyethoxy)-2,3-dihydro-[1,4]dioxino[2,3-f]quinolin-10-yl)oxy)-2-isopropylphenyl)-3-(4-fluorophenyl)-1-ethyl-2,4-dioxo-1,2,3,4-tetrahydropyrimidine-5-carboxamide]		> 1000 nM			50 to 500 nM				
